Results on four substances are retold here after patent US7687478B2, “Disialoundecasaccharide chain asparagine/fatty acid amide and medical drug containing the same” (priority 2003, dated 2010).

The assay has as its system influenza virus A/New Caledonia/20/99 (H1N1) (hemagglutinin). In words: Influenza virus (hemagglutinin) inhibiting activity with fowl blood cells. The format is biochemical. As to conditions: A/New Caledonia/20/99 (H1N1) HA split fractions; 0.5% fowl hematid; 4° C., 60 minutes.
“Asparagine-linked Disialoundecaoligosaccharide-stearic Acid Amide [derivative 5]”: the “amount of derivative at which influenza virus (hemagglutinin) inhibiting activity was exhibited” value was 47.5 µmol. “Asparagine-linked Disialoundecaoligosaccharide-behenic Acid Amide [derivative 6]”: the “amount of derivative at which influenza virus (hemagglutinin) inhibiting activity was exhibited” value turned out to be 37.5 µmol. Regarding “Asparagine-linked Disialoundecaoligosaccharide-myristic Acid Amide [derivative 4]”, the “amount of derivative at which influenza virus (hemagglutinin) inhibiting activity was exhibited” value was determined as 95.0 µmol.

As to “Asparagine-linked Disialoundecaoligosaccharide-decanoic Acid Amide [derivative 3]”, the “amount of derivative at which influenza virus (hemagglutinin) inhibiting activity was exhibited” value worked out at 190.0 µmol.
